# Data from the supplement of paper PMC11208160.
# Test: recombinant barcode read abundance after kanamycin selection (control-corrected) (log10(CPM+1)); higher = more efficient recombination; sequences stand for … in AGTGCAGAGAAAATCGGCCAGTTTTCTCTGCCTGCAGTCCGCATGCCGT…AGATTTATGCAGCGGACTGCCTTTCTCCCAAAGTGATAAACCGGACAGTATCATGGACCGGTTTTCCCGGTAATCCGTATTTGCAAGGTTGGTTTCACT; site = the 11-nt target
# Method in brief: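 A promoter, a target, a barcode and the first 104 bridge RNA bases under J23119 made up each oligo. Oligos were Gibson-cloned into a vector bearing the other 73 bp and a T7-inducible recombinase, then co-electroporated into E. coli with a donor plasmid and plated in duplicate on chloramphenicol/ampicillin LB agar (control) or chloramphenicol/ampicillin/kanamycin with 0.1 mM IPTG. Recombination efficiency is the averaged, control-corrected counts per million of recombinant-junction barcodes. Reported values are log10(CPM+1).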
# 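Note: IS621 recombinase and bridge RNA in Escherichia coli cells.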
row,Sequence,recombinant barcode read abundance (log10)
1,CAATCGTCTTGGGTTCTAACCTGTTGCGG (site CAGCCGTCTCC),0.166
2,CAATGGTCTTGGGTTCTAACCTGTTGCAT (site CAATGGTCTAA),0.409
3,CAATGGTCTTGGGTTCTAACCTGTTGCAT (site CAATGGTCTAC),0.476
4,CAATGGTCTTGGGTTCTAACCTGTTGCAT (site CAATGGTCTAG),0.54
5,CAATGGTCTTGGGTTCTAACCTGTTGCAT (site CAATGGTCTAT),2.71
6,CAATTGTCTTGGGTTCTAACCTGTTGCGT (site CAATTGTCTAC),3.47
7,CAATTGTCTTGGGTTCTAACCTGTTGCGT (site TAATTGTCTAC),0.151
8,CACAAGTCTTGGGTTCTAACCTGTTGCTT (site CACAAGTCTAA),0.474
9,CACAAGTCTTGGGTTCTAACCTGTTGCTT (site CGCACGTCTAA),0.0654
10,CACAATACTTGGGTTCTAACCTGTTGCCT (site CACAATACTAG),1.03
11,CACAATACTTGGGTTCTAACCTGTTGCCT (site GCATGACCTCT),0.00751
12,CACACAGCTTGGGTTCTAACCTGTTGCCT (site CACAAAGCTAG),0.082
13,CACACAGCTTGGGTTCTAACCTGTTGCCT (site CACACAGCTAG),0.559
14,CACAGGGCTTGGGTTCTAACCTGTTGCGG (site CACAGGGCTCC),2.39
15,CACAGGGCTTGGGTTCTAACCTGTTGCGG (site CACATGGCTCG),0.344
16,CACATCTCTTGGGTTCTAACCTGTTGCCT (site CACATATCTAT),0.0495
17,CACATCTCTTGGGTTCTAACCTGTTGCCT (site CACATCTCTAG),1.38
18,CACATTCCTTGGGTTCTAACCTGTTGCCT (site AACATTCCTAG),0.158
19,CACATTCCTTGGGTTCTAACCTGTTGCCT (site CACATTCCTAG),0.17
20,CACATTCCTTGGGTTCTAACCTGTTGCCT (site GACATTCCTAG),0.141
21,CACATTCCTTGGGTTCTAACCTGTTGCCT (site TACATTCCTAG),0.06
22,CACCACTCTTGGGTTCTAACCTGTTGCCT (site AACCACTCTAG),0.545

row,Sequence,recombinant barcode read abundance (log10)
1,CACCACTCTTGGGTTCTAACCTGTTGCCT (site CACCACTCTAG),1.56
2,CACCACTCTTGGGTTCTAACCTGTTGCCT (site GACCACTCTAG),0.108
3,CACCACTCTTGGGTTCTAACCTGTTGCCT (site TACCACTCTAG),0.195
4,CACCGTTCTTGGGTTCTAACCTGTTGCTT (site CACCGTTCTAA),0.552
5,CACCGTTCTTGGGTTCTAACCTGTTGCTT (site CATCGCTCTAA),0.0503
6,CACGAGACTTGGGTTCTAACCTGTTGCCT (site CACGAGACTAG),2.05
7,CACGAGACTTGGGTTCTAACCTGTTGCCT (site CACGAGCCTAG),0.0856
8,CACGAGACTTGGGTTCTAACCTGTTGCCT (site CACGAGGCTAG),1.02
9,CACGAGACTTGGGTTCTAACCTGTTGCCT (site CACGAGTCTAG),0.424
10,CACGAGTCTTGGGTTCTAACCTGTTGCCT (site CACGAGACTAG),0.0562
11,CACGAGTCTTGGGTTCTAACCTGTTGCCT (site CACGAGCCTAG),0.24
12,CACGAGTCTTGGGTTCTAACCTGTTGCCT (site CACGAGGCTAG),0.109
13,CACGAGTCTTGGGTTCTAACCTGTTGCCT (site CACGAGTCTAG),1.57
14,CACGCCTCTTGGGTTCTAACCTGTTGCCT (site AACGCCTCTAG),0.116
15,CACGCCTCTTGGGTTCTAACCTGTTGCCT (site CACGCCTCTAG),1.88
16,CACGCCTCTTGGGTTCTAACCTGTTGCCT (site GACGCCTCTAG),0.385
17,CACGCCTCTTGGGTTCTAACCTGTTGCCT (site TACGCCTCTAG),0.0712
18,CACGCGCCTTGGGTTCTAACCTGTTGCGG (site CACGCGCCTCC),1.84
19,CACGCGCCTTGGGTTCTAACCTGTTGCGG (site GCTCATACTAG),0.00629
20,CACGGGACTTGGGTTCTAACCTGTTGCAG (site CACGGGACTCT),2.58
21,CACGGGACTTGGGTTCTAACCTGTTGCAG (site TCGAACGCTAA),0.111
